# In patent publication US11702422B2, “Imidazopyridazines as modulators of IL-17” (Janssen Pharmaceutica NV, priority 2020, dated 2023):
# Structures can show the parent of a compound that is named as a salt.
# Assays:
# [1] = target: IL-17A(FLAG-Tagged): IL-17RA(His-Tagged) (Homo sapiens, UniProt Q16552, K93Q); assay: IL-17A(FLAG-Tagged): IL-17RA(His-Tagged) Binding Disruption Eu-HTRF Assay; settings: IL-17A/IL-17RA binding disruption, simple average if tested more than once
# Text: IL-17A(FLAG-Tagged): IL-17RA(His-Tagged) Binding Disruption Eu-HTRF Assay
# An antibody directed against the FLAG tag of IL-17A (SEQ ID NO:1) is labeled with the HTRF donor chromophore (Europium-cryptate). IL-17A is present as a dimer that is “locked into” this quaternary structure due to the formation of loop-spanning […] disulfide bridges. The construct of IL-17RA used in the assay excludes the […] portion of the receptor and is fused to a C-terminal 10×His tag (SEQ ID NO:2). An antibody directed against the His tag of the IL-17RA chimera is labeled with the HTRF acceptor chromophore (“D2”). The fluorescence-resonance energy transfer (FRET) depends on the vicinity of the donor chromophore to the acceptor, and interruption of the binding between the IL-17A and IL-17RA causes the reduction/loss of FRET. Therefore, this assay allows to evaluate the compound effect on the binding IL-17A and IL-17RA by monitoring the fluorescence intensity of donor vs acceptor. The assay is run as described below.
# 40 nl of 2-fold serial diluted compound solution for total 22 dilution points is added into each well of a 1536-well, white, low-volume, non-binding plate (Greiner #782904), then 2 μl of FLAG tagged IL-17A at 2× final concentration (2.5 nM) in solution of PBS+0.01% Triton-X100 is added to each well. The assay plate is briefly centrifuged then incubated for 1 h at rt. A mixed solution is prepared containing 2×5 nM 10HIS×IL-17RA, 2×2.5 nM Eu-anti-FLAG (CISBIO), 2×5 nM D2-anti-HIS (CISBIO) in PBS+0.01% Triton-X100+200 mM Potassium Fluoride (Sigma 60238) and 2 μl of mix is added to each well of the assay plate. The plate is briefly centrifuged then incubated for 2 h at rt. The HTRF intensities at the wavelength of donor (620 nm) and acceptor (665 nm) are measured using BMG Pherastar. The ratio between intensities at two wavelengths is calculated and plotted against the compound concentration and the data is fitted to a one-site competition model to yield IC50 of the compound.
# [2] = system: IL-17A-induced G-CSF production in human normal keratinocyte (NHK); assay: NHK Assay: IL-17A-induced G-CSF production in human normal keratinocytes; assay type: cell-based; settings: Homo sapiens, Keratinocyte, 24 h, adult normal human keratinocytes, IL-17A 5 ng/mL, simple average if tested more than once
# Procedure: IL-17A acts directly on keratinocytes through binding to dimeric receptor IL-17RA/RC and drives the production of a number of inflammatory mediators known to be elevated in psoriasis lesional tissue. IL-17A small molecule inhibitors that block the IL-17A to interact with IL-17R would inhibit the IL-17A signaling in its targeted cells such as keratinocytes. The compound functional activity is evaluated for its impact on IL-17A-induced G-CSF production in human normal keratinocyte (NHK).
# Adult normal human keratinocytes are cultured in keratinocyte growth medium (Lonza) in a flask till reaching ˜ 90% confluence, then cells are transferred to a 384-well plate at density of 3000-4000 cell/well. Recombinant human IL-17A (Gibco PHC9174) is pre-incubated with titrated compound or DMSO for 1 h at rt then added to the cell culture plate. The final concentration of IL-17A is 5 ng/mL and DMSO is 0.2%, in the culture containing 5% FBS. Cells are cultured/treated for 24 h at 37° C. Supernatants are collected and G-CSF production is measured through HTRF technology using Human G-CSF Kit (CisBio). G-CSF concentration was extrapolated from the standard curve and IC50 is determined using GraphPad Prism. Cell viability is also evaluated using CellTiter-Glo kit (Promega) and effect of compound on cell viability is compared to DMSO control.
# Sequence of UniProt Q16552 (Q16552 with tags, fused parts or gaps K93Q): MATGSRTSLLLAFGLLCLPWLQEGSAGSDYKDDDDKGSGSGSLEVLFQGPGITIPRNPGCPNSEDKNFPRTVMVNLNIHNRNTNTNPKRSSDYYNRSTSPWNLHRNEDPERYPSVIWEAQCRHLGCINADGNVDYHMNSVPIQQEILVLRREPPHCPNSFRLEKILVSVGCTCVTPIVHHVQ
SMILES,IC50 [1] [nM],IC50 [2] [nM]
"O=C(N[C@H](c1cn2ncc(CNC(=O)[C@@H]3NCCC[C@H]3C(F)(F)F)cc2n1)C1CCCCC1)c1ccccc1 (relative stereo) [Example 1, (Trans-2R*,3R*)—N-((2-((S)-benzamido(cyclohexyl)methyl)imidazo[1,2-b]pyridazin-7-yl)methyl)-3-(trifluoromethyl)piperidine-2-carboxamide hydrochloride]",180,300
"O=C(N[C@H](c1cn2ncc(CNC(=O)[C@H]3NCCC[C@@H]3C(F)(F)F)cc2n1)C1CCCCC1)c1ccccc1 (relative stereo) [Example 2, (Trans-2S*,3S*)—N-((2-((S)-benzamido(cyclohexyl)methyl)imidazo[1,2-b]pyridazin-7-yl)methyl)-3-(trifluoromethyl)piperidine-2-carboxamide hydrochloride]",7600,> 20000
"Cn1nccc1C(=O)N[C@H](c1cn2ncc(CNC(=O)[C@@H]3NCCC[C@H]3C(F)(F)F)cc2n1)C1CCCCC1 (relative stereo) [Example 3, (Trans-2R*,3R*)—N-((2-((S)-cyclohexyl(1-methyl-1H-pyrazole-5-carboxamido)methyl)imidazo[1,2-b]pyridazin-7-yl)methyl)-3-(trifluoromethyl)piperidine-2-carboxamide hydrochloride]",97,300
"O=C(N[C@H](c1cn2ncc([C@H](NC(=O)[C@@H](O)CC(F)(F)F)C3CC3)cc2n1)C1CCC(F)(F)CC1)c1cnn(CC(F)(F)F)n1 (relative stereo) [Example 31, N—((S)-(7-((R*)-Cyclopropyl((S*)-4,4,4-trifluoro-2-hydroxybutanamido)methyl)imidazo[1,2-b]pyridazin-2-yl)(4,4-difluorocyclohexyl)methyl)-2-(2,2,2-trifluoroethyl)-2H-1,2,3-triazole-4-carboxamide]",360,1300
"CC(C)n1nccc1C(=O)N[C@H](c1cn2ncc([C@H](NC(=O)C[C@@H](O)C(F)(F)F)C3CC3)cc2n1)C1CCC(F)(F)CC1 (relative stereo) [Example 130, N—((S)-(7-((R*)-Cyclopropyl((R*)-4,4,4-trifluoro-3-hydroxybutanamido)methyl)imidazo[1,2-b]pyridazin-2-yl)(4,4-difluorocyclohexyl)methyl)-1-isopropyl-1H-pyrazole-5-carboxamide]",270,390
"CC(C)n1nccc1C(=O)N[C@H](c1cn2ncc([C@H](NC(=O)C[C@H](O)C(F)(F)F)C3CC3)cc2n1)C1CCC(F)(F)CC1 (relative stereo) [Example 131, N—((S)-(7-((R*)-Cyclopropyl((S*)-4,4,4-trifluoro-3-hydroxybutanamido)methyl)imidazo[1,2-b]pyridazin-2-yl)(4,4-difluorocyclohexyl)methyl)-1-isopropyl-1H-pyrazole-5-carboxamide]",87,100
"CC(C)n1nccc1C(=O)N[C@H](c1cn2ncc([C@H](NC(=O)C[C@@](C)(O)C(F)(F)F)C3CC3)cc2n1)C1CCC(F)(F)CC1 (relative stereo) [Example 132, N—((S)-(7-((R*)-Cyclopropyl((R*)-4,4,4-trifluoro-3-hydroxy-3-methylbutanamido)methyl)imidazo[1,2-b]pyridazin-2-yl)(4,4-difluorocyclohexyl)methyl)-1-isopropyl-1H-pyrazole-5-carboxamide]",220,260
"CC(C)n1nccc1C(=O)N[C@H](c1cn2ncc([C@H](NC(=O)C[C@](C)(O)C(F)(F)F)C3CC3)cc2n1)C1CCC(F)(F)CC1 (relative stereo) [Example 133, N—((S)-(7-((R*)-Cyclopropyl((S*)-4,4,4-trifluoro-3-hydroxy-3-methylbutanamido)methyl)imidazo[1,2-b]pyridazin-2-yl)(4,4-difluorocyclohexyl)methyl)-1-isopropyl-1H-pyrazole-5-carboxamide]",150,360
"O=C(CC1CC(F)(F)C1)N[C@@H](c1cnn2cc([C@@H](NC(=O)[C@H]3C[C@@H]3C(F)(F)F)C3CCC(F)(F)CC3)nc2c1)C1CC1 (relative stereo) [Example 143, (Trans-1S*,2S*)—N—((S)-(7-((R)-Cyclopropyl(2-(3,3-difluorocyclobutyl)acetamido)methyl)imidazo[1,2-b]pyridazin-2-yl)(4,4-difluorocyclohexyl)methyl)-2-(trifluoromethyl)cyclopropane-1-carboxamide]",130,450
"O=C(CC1CC(F)(F)C1)N[C@@H](c1cnn2cc([C@@H](NC(=O)[C@@H]3C[C@H]3C(F)(F)F)C3CCC(F)(F)CC3)nc2c1)C1CC1 (relative stereo) [Example 144, (Trans-1R*,2R*)—N—((S)-(7-((R)-Cyclopropyl(2-(3,3-difluorocyclobutyl)acetamido)methyl)imidazo[1,2-b]pyridazin-2-yl)(4,4-difluorocyclohexyl)methyl)-2-(trifluoromethyl)cyclopropane-1-carboxamide]",1400,7000
"O=C(CCC(F)(F)F)N[C@@H](c1cnn2cc([C@@H](NC(=O)[C@H]3C[C@@H]3C(F)(F)F)C3CCC(F)(F)CC3)nc2c1)C1CC1 (relative stereo) [Example 149, (Trans-1S*,2S*)—N—((S)-(7-((R)-Cyclopropyl(4,4,4-trifluorobutanamido)methyl)imidazo[1,2-b]pyridazin-2-yl)(4,4-difluorocyclohexyl)methyl)-2-(trifluoromethyl)cyclopropane-1-carboxamide]",240,510
"O=C(CCC(F)(F)F)N[C@@H](c1cnn2cc([C@@H](NC(=O)[C@@H]3C[C@H]3C(F)(F)F)C3CCC(F)(F)CC3)nc2c1)C1CC1 (relative stereo) [Example 150, (Trans-1R*, 2R*)—N—((S)-(7-((R)-Cyclopropyl(4,4,4-trifluorobutanamido)methyl)imidazo[1,2-b]pyridazin-2-yl)(4,4-difluorocyclohexyl)methyl)-2-(trifluoromethyl)cyclopropane-1-carboxamide]",1300,> 20000
"C[C@H](CC(=O)N[C@@H](c1cnn2cc([C@@H](NC(=O)[C@@H]3C[C@H]3C(F)(F)F)C3CCC(F)(F)CC3)nc2c1)C1CC1)C(F)(F)F (relative stereo) [Example 241, (trans-1R*,2R*)—N—((S)-(7-((R)-Cyclopropyl((R*)-4,4,4-trifluoro-3-methylbutanamido)methyl)imidazo[1,2-b]pyridazin-2-yl)(4,4-difluorocyclohexyl)methyl)-2-(trifluoromethyl)cyclopropane-1-carboxamide]",3400,> 20000
"C[C@@H](CC(=O)N[C@@H](c1cnn2cc([C@@H](NC(=O)[C@@H]3C[C@H]3C(F)(F)F)C3CCC(F)(F)CC3)nc2c1)C1CC1)C(F)(F)F (relative stereo) [Example 242, (trans-1R*,2R*)—N—((S)-(7-((R)-Cyclopropyl((S*)-4,4,4-trifluoro-3-methylbutanamido)methyl)imidazo[1,2-b]pyridazin-2-yl)(4,4-difluorocyclohexyl)methyl)-2-(trifluoromethyl)cyclopropane-1-carboxamide]",1300,790
Cc1nonc1C(=O)N[C@H](c1cn2ncc([C@H](NC(=O)C[C@H]3CC3(F)F)C3CC3)cc2n1)C1CCC(F)(F)CC1 (relative stereo) [Example 255],170,600
Cc1nonc1C(=O)N[C@H](c1cn2ncc([C@H](NC(=O)CC3CC3(F)F)C3CC3)cc2n1)C1CCC(F)(F)CC1 (relative stereo) [Example 256],56,250
